Experimental data: patent US8242136B2, “Use of glucosidase inhibitors for therapy of mucovisidosis” (Centre National de la Recherche Scientifique (C.N.R.S.), priority 2003, dated 2012)
Entries after “also recorded” stand apart in the source; their conditions may differ.

Legend:
delF508-CFTR [1] = test: Iodide efflux on CF15 cells: addressing of delF508 after pre-treatment, stimulation with forskolin + genistein; assay type: cell-based, human; conditions: CF15 cells treated with 100μM for two hours at 37° C.; Forskolin 10μM + Genistein 30μM; FIG. 7
delF508-CFTR [2] = test: as above; assay type: cell-based, human
Procedure: CF15 cells: CF15 cells are human epithelial cells of nasal origin which express the ΔF508-CFTR gene.
The measurements of chloride ion transport in the cells were carried out using the radioactive iodide efflux technique (Becq et al., 1999; Dormer et al., 2001). The tracer (^125I) is incorporated into the intracellular medium. Then, the quantity of radiotracer leaving the cell is counted after the addition of different pharmacological agents. The iodide is used as a tracer of the chloride ion transport. It has been shown that the two radiotracers ^125I and ^36Cl could be considered as equivalents for measuring the activity of a chloride channel (Venglarick et al., 1990). ^125I moreover has the advantage of having a short life compared with that of […] (respective half-lives: 30 days and 300,000 years). The cells are cultured on 24-well plates in an appropriate medium. 2 rinsings with efflux medium (NaCl: 136.6 mM, KCl: 5.4 mM, KH2PO4: 0.3 mM, NaH2PO4: 0.3 mM, NaHCO3: 4.2 mM, CaCl2: 1.3 mM, MgCl2: 0.5 mM, MgSO4: 0.4 mM, HEPES: 10 mM, D-glucose: 5.6 mM) are carried out in order to eliminate the dead cells which release the radioactivity in an anarchic manner. Then, the cells are incubated with 500 μl of charge (1 μCi/ml of ^125INa) for 30 minutes for CHO-WT or 1 hour for CF15 and Calu-3. The iodide is in equilibrium on both sides of the cell membrane. The robot (MultiPROBE, Packard) carries out the following stages: The charge medium is rinsed with efflux medium in order to eliminate the extracellular radioactivity. The supernatant is collected every minute in haemolysis tubes and the medium is replaced by an equivalent volume (500 μl). The samples taken in the first 3 minutes are not subjected to the addition of a drug, they make it possible to obtain a stable base line, characterizing the passive exit of the I^− ions. The following 7 samples are obtained in the presence of the molecule to be tested. At the end of the experiment, the cells are lysed by the addition of 500 μl of NaOH (0.1 N)/0.1% SDS (30 minutes), thus, the radioactivity remaining inside the cell can be determined. The radioactivity present in the haemolysis tubes is counted in counts per minute (cpm) using a gamma counter (Cobra II, Packard). The results in cpm are expressed in the form of exit speed of radioactive iodide (R) according to the following formula: R (min^−1)=[ln(^125I t1)−ln(^125I t2)]/(t1−t2) with ^125I t1: cpm at time t1; ^125I t2: cpm at time t2. This iodide flow is represented in the form of a curve. In order to quantify the exit of iodide due to the administration of the molecule tested, the following relative flow is calculated which makes it possible to be rid of the base flow: Relative speed (min^−1)=Rpeak−Rbasal. […] The results are presented in the form of an average+/−SEM. Student's statistical test is used in order to compare the effects of the drugs with the controls (the values corresponding to P<0.01 are considered statistically significant).
For each experiment, the addition of a cocktail (Forskolin 10 μM, Genistein 30 μM) allows the activation of the CFTR when the latter is on the membrane. […]
The CF15 cells were pre-treated for 2 hours with NB-DNJ (500μM). […] The CFTR activity is measured in iodide efflux (n=8 for each condition) after stimulation by fsk 10μM+Gst 30μM.
The CF15 cells were pre-treated for 2 hours with NB-DNJ at different concentrations. The CFTR activity is measured in iodide efflux (n=4 for each concentration) after stimulation with fsk 10μM+Gst 30μM.

wild-type CFTR [3] = test: Iodide efflux on Calu-3 cells pre-treated for 2 hours: addressing of wild-type CFTR; assay type: cell-based, human; conditions: Calu-3 cells pre-incubated 2 hours at 37° C. (NB-DNJ 500μM or MPB-91 250μM), stimulated with 250μM MPB-91
Procedure: (§1) Calu-3 cells: Calu-3 cells are human epithelial cells of pulmonary origin which express the wild-type CFTR gene.
(§2) The measurements of chloride ion transport in the cells were carried out using the radioactive iodide efflux technique (Becq et al., 1999; Dormer et al., 2001). The tracer (^125I) is incorporated into the intracellular medium. Then, the quantity of radiotracer leaving the cell is counted after the addition of different pharmacological agents. The iodide is used as a tracer of the chloride ion transport. […] 2 rinsings with efflux medium (NaCl: 136.6 mM, KCl: 5.4 mM, KH2PO4: 0.3 mM, NaH2PO4: 0.3 mM, NaHCO3: 4.2 mM, CaCl2: 1.3 mM, MgCl2: 0.5 mM, MgSO4: 0.4 mM, HEPES: 10 mM, D-glucose: 5.6 mM) are carried out in order to eliminate the dead cells which release the radioactivity in an anarchic manner. […] The robot (MultiPROBE, Packard) carries out the following stages: The charge medium is rinsed with efflux medium in order to eliminate the extracellular radioactivity. […] At the end of the experiment, the cells are lysed by the addition of 500 μl of NaOH (0.1 N)/0.1% SDS (30 minutes), thus, the radioactivity remaining inside the cell can be determined. The radioactivity present in the haemolysis tubes is counted in counts per minute (cpm) using a gamma counter (Cobra II, Packard). […]

wild-type CFTR [4] = biological target: T1, wild-type CFTR (Homo sapiens, UniProt P13569); test: Iodide efflux on Calu-3 cells: compound tested as activator; assay type: cell-based; conditions: fsk 5μM, MPB-91 250μM, NB-DNJ 500μM, n=8
T1 construct: Calu-3 cells are human epithelial cells of pulmonary origin which express the wild-type CFTR gene; endogenous in cells; host or cells: Calu-3 human pulmonary epithelial cells
Procedure: as §1, §2

CHO-WT cells = test: MTT cytotoxicity test on CHO-WT cells; assay type: cell-based, Chinese Hamster; conditions: 2 hours; for cytotoxicity (MTT): CHO cells
Procedure: CHO-WT cells: CHO (Chinese Hamster Ovary) cells are fibroblasts which have been transfected with the wild-type CFTR gene (CFTR-WT). These cells will therefore overexpress the CFTR protein.
The MTT toxicity test is a colorimetric test which is based on the ability of the mitochondrial dehydrogenases to metabolize MTT (yellow tetrazolium salt) to formazan (purple). The absorbance, proportional to the concentration of converted dye, can then be measured by spectrophotometry. The cells are incubated on 96-well plates in the presence of the agent to be tested for 2 hours. 3 controls are carried out: 100% live cells: cells without agent; 0% live cells: cells left in the open air; blank: medium without cells. […] Then they are incubated for 4 hours with 100 μl of RPMI solution supplemented with MTT (0.5 mg/ml). The medium is then eliminated, the addition of 100 μl of DMSO makes it possible to solubilize the converted dye (formazan). The absorbance is measured by spectrophotometry at: 570 nm (purple); 630 nm (background noise). In order to be rid of the background noise, the following calculation is carried out: ODreal=OD570 nm−OD630 nm.
For the purpose of testing the cytotoxicity of NB-DNJ, CHO-WT cells were incubated for 2 hours with different concentrations of inhibitors before being subjected to the cell viability test with MTT.
2 hours of treatment of the cells.

delF508-CFTR [5] = test: Immunolabelling / cell imaging of delF508 location in CF15 cells; assay type: cell-based, human; conditions: CF15 cells after treatment
Procedure: Immunolabelling makes it possible to visualize the cell location of the CFTR protein by means of an anti-CFTR primary antibody (Ab) then a primary anti-antibody secondary antibody labelled with Cy3 fluorophore. The cells are previously seeded on lamellae in appropriate culture medium. 3 washings with TBS (NaCl: 157 mM, Tris base: […], pH 7.4) of 5 minutes each are carried out. The cells are then fixed by the addition of TBS-paraformadehyde (3%) over 20 minutes. After 3 washings with TBS (5 minutes), the cells are incubated with 0.1% TBS-triton (10 minutes) which allows the formation of holes in the cell membrane, then 3 washings with TBS are once again carried out before bringing the cells together with 0.5% TBS-BSA-0.05% saponin for 1 hour. The cells are then incubated with the CFTR anti-C terminal primary antibody (2μg/ml) for 1 hour. 3 washings with TBS-BSA-saponin of 5 minutes each are carried out before incubation with the GAM-cy3 secondary antibody ( 1/400) for 1 hour. Following two 5-minute washings with TBS, the nuclei are labelled by incubation with Topro3 ( 1/1000) for 5 minutes. Finally, the lamellae can be mounted on slides after three last 5-minute washings with TBS. […] In order to differentiate between Cy3 and Topro3 labelling the colour of fluorescence of Topro3 has been changed to blue (colour of the nuclei). […]

tissues in culture = conditions: high concentration (2 mM); cited from earlier work
[6] = patients suffering from acquired immunodeficiency syndrome; cited from earlier work
delF508 = conditions: pulmonary epithelial cells; cited from earlier work
[7] = CF15 cells, stimulation Forskolin 10μM + Genistein 30μM

T1 sequence (P13569 whole entry): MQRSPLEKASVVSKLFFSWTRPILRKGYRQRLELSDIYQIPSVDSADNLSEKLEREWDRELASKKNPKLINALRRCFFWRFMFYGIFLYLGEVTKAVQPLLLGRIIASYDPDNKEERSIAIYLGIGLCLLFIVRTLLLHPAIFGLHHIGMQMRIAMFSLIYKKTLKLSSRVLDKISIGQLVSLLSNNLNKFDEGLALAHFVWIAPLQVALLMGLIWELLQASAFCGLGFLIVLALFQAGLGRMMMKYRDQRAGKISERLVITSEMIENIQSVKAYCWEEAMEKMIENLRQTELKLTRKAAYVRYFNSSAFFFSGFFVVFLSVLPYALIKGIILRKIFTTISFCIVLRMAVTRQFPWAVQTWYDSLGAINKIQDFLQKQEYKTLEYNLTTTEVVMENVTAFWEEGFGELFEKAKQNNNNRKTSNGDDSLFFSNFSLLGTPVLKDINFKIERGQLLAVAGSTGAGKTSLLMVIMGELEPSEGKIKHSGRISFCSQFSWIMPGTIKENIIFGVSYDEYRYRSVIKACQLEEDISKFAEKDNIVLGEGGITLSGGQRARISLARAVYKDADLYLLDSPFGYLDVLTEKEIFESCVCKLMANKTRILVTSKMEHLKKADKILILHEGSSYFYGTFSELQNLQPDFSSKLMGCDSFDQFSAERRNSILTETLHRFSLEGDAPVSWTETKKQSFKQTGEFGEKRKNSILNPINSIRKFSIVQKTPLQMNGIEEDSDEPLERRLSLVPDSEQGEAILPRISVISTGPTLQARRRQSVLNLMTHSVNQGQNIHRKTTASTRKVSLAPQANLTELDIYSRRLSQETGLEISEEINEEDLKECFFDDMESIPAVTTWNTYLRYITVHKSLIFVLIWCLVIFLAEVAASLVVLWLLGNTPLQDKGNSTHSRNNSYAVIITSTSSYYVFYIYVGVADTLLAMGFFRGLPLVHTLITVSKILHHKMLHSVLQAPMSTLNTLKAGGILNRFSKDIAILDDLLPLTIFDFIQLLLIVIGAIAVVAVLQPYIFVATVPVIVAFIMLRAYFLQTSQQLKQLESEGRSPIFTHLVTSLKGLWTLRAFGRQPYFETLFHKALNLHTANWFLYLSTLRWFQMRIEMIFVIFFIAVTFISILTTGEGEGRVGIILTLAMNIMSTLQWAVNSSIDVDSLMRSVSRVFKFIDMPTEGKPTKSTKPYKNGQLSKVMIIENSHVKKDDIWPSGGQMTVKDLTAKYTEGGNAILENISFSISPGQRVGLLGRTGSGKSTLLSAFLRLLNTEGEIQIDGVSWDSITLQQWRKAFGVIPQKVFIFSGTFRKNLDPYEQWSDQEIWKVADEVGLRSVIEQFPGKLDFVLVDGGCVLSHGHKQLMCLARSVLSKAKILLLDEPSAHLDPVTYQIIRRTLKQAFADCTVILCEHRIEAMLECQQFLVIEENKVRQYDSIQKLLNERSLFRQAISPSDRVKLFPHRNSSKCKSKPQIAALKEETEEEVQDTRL

Question: Which “addressing of delF508 and function as ion transporter (iodide efflux)” value (from here on “addressing of delF508 and function”) (delF508-CFTR [1]) does the source give for `C[C@@H]1NC[C@@H](O)[C@H](O)[C@@H]1O` [DFJ] here?
Answer: The value was “no significant effect”.

Question: For `OC[C@H]1NC[C@H](O)[C@@H](O)[C@H]1O` [DGJ], which “addressing of delF508 and function” value (delF508-CFTR [1]) is on record?
Answer: Its value is “no significant effect”.

Question: Which results are given for `OCC1NCC(O)C(O)C1O` (stereo not drawn) [DMJ]?
Answer: EC50 (delF508-CFTR [2]; [7]): 134 µM; addressing of delF508 and function as ion transporter (iodide efflux) (delF508-CFTR [1]): restores an addressing of the delF508 protein and allows the latter to function as an ion transporter

Question: For `OC[C@H]1NC[C@H](O)[C@@H](O)[C@@H]1O` [DNJ], which EC50 (delF508-CFTR [2]; [7]) is on record?
Answer: The EC50 was greater than 250 µM.

Question: And the “addressing of delF508 and function” value (delF508-CFTR [1])?
Answer: Its value is “restores an addressing of the delF508 protein and allows the latter to function as an ion transporter”.

Question: Which “CFTR activity (iodide efflux) after 2 hours pre-treatment” value (wild-type CFTR [3]) does the source give for `CCCCc1c(O)c2cccc(Cl)c2[n+]2ccccc12` [MPB-91] here?
Answer: The value was “not significantly different”.

Question: What about the “activation of iodide efflux (CFTR activity / anionic transports)” value (wild-type CFTR [4]) of the same compound?
Answer: The value was “activate an iodide efflux”.

Question: For `CCCCN1C[C@H](O)[C@@H](O)[C@H](O)[C@H]1CO` [NB-DNJ, N-butyl-deoxynojirimycin], which “cytotoxicity (MTT)” value (CHO-WT cells; 5μM) is on record?
Answer: Its value is “no cytotoxicity is measurable”.

Question: And the “cytotoxicity (MTT)” value (CHO-WT cells; 50μM)?
Answer: Its value is “no cytotoxicity is measurable”.

Question: And the “cytotoxicity (MTT)” value (CHO-WT cells; 500μM)?
Answer: The value was “A low toxicity appears”.

Question: And the “cell viability / cytotoxicity (MTT)” value (CHO-WT cells; CHO-WT cells, all concentrations)?
Answer: Its value is “exhibits no cell cytotoxicity”.

Question: What about the “location of delF508 protein by cell imaging” value (delF508-CFTR [5]) of the same compound?
Answer: Its value is “located the delF508 protein in the plasmatic membrane compartments”.

Question: And the “CFTR activity (iodide efflux) after 2 hours pre-treatment” value (wild-type CFTR [3])?
Answer: The value was “the level of CFTR activity is not affected”.

Question: What about the “addressing of delF508 and function” value (delF508-CFTR [2]; CF15 cells pre-treated 2 hours at 37° C. with 500μM, stimulation fsk 10μM + Gst 30μM, MPB-91 250μM = 100%) of the same compound?
Answer: Its value is “restores addressing of the delF508 protein and allows the latter to function as an ion transporter”.

Question: What about the EC50 (delF508-CFTR [2]; CF15 cells pre-treated 2 hours, stimulation fsk 10μM + Gst 30μM, FIG. 2) of the same compound?
Answer: The EC50 was 123 µM.

Question: What about the “activation of iodide efflux (CFTR activity / anionic transports)” value (wild-type CFTR [4]) of the same compound?
Answer: Its value is “is not an activator of the wild-type CFTR nor of other anionic transports of these cells; also recorded: has no effect”.

Question: What about the “cytotoxicity on tissues in culture” value (tissues in culture) of the same compound?
Answer: Its value is “is not cytotoxic”.

Question: And the tolerability in patients [6]?
Answer: Its tolerability in patients is “well tolerated”.

Question: With `O[C@H]1[C@H](O)[C@@H](O)CN2CC[C@H](O)[C@H]12` [castanospermine] as the compound, how does the “presence of delF508 at the surface of cells” value (delF508) read?
Answer: Its value is “had an effect on the renewal of the presence of delF508 at the surface of pulmonary epithelial cells”.

Question: With `CCCCN1C[C@@H](O)[C@H](O)[C@H](O)[C@@H]1C` [nB-DFJ] as the compound, how does the “addressing of delF508 and function” value (delF508-CFTR [1]) read?
Answer: The value was “no significant effect”.

Question: Which “addressing of delF508 and function” value (delF508-CFTR [1]) does the source give for `CCCCN1C[C@H](O)[C@@H](O)[C@@H](O)[C@H]1CO` [nB-DGJ] here?
Answer: Its value is “no significant effect”.

Question: For `CCCCN1C[C@@H](O)[C@@H](O)[C@H](O)[C@H]1CO` [nB-DMJ], which EC50 (delF508-CFTR [2]; [7]) is on record?
Answer: The EC50 was 113 µM.

Question: What about the “addressing of delF508 and function” value (delF508-CFTR [1]) of the same compound?
Answer: The value was “restores an addressing of the delF508 protein and allows the latter to function as an ion transporter”.
